Measured values reported in patent publication EP3851117A1, “INHIBITORS OF INTRACELLULAR BACTERIAL GROWTH AND PERSISTENCE AS ANTIBIOTICS” (Consejo Superior de Investigaciones Científicas (CSIC), priority 2020, dated 2021).
Values after ≈ are worked out from the molar mass of the structure shown. “Also recorded” adds a separate entry of the source.

Key:
[1] = test system: S. Typhimurium mutant lacking PBP2; test: Spot dilution assay on PCN plates with antibiotic; format: cell-based
Description: (§1) PCN plates for spot dilution assays were prepared by mixing 7.5 ml of sterile PCN medium (2x concentrated) at the desired pH and 7.5 ml of autoclaved agar (30 mg/mL). The mixture was supplemented with 0.01% (w/v) yeast extract (YE). Cultures were grown in PCN pH 4.6 medium overnight and adjusted to same optical density values. These cultures were serially 10-fold diluted. 5 µl of each dilution was spotted onto PCN plates with or without antibiotic added.

[2] = test system: S. Typhimurium mutant lacking PBP2SAL; test: Spot dilution assay on PCN plates with antibiotic; format: cell-based; details: pH 4.6
Description: as §1

[3] = test system: S. Typhimurium (wild-type); test: Spot dilution assay on PCN plates with antibiotic; format: cell-based; details: MEC 5 µg/mL, ATM 0.125 µg/mL
Description: as §1

[4] = test system: S. Typhimurium mutant lacking PBP2; test: BALB/c mice challenge, bacterial load in spleen; format: in vivo; details: intraperitoneal, every 24 h
Description: (§2) Groups of three 8-week-old female BALB/c mice were inoculated with the following isogenic strains: MD5064 (PBP2SAL::3xFlag PBP3SAL::3xFlag), MD5063 (ΔPBP2, ΔPBP2SAL), MD5544 (ΔPBP2 ΔPBP2SAL pPBP2SAL::PBP2), MD5542 (ΔPBP3, ΔPBP3SAL and ΔPBP3 ΔPBP3SAL pPBP3SAL::PBP3). The doses used were 2x10^3 CFU in 200 µl of sterile PBS. Along four days, mice received intraperitoneally every 24 h a regime consisting in 10 mg mecillinam (MEC) or 2.5 mg aztreonam (ATM) per animal in 200 µl of sterile water. Mice were sacrificed four days post inoculation and spleens homogenized in 5 ml of sterile PBS. Aliquots (100 µl) of 10-fold serial dilutions of the homogenates were cultured in LB pH 4.6 plates to quantify the number of viable S. Typhimurium. To detect PBPs in vivo, spleen extracts from three mice were prepared at 72 hpi as described previously (Dominguez-Bernal, G. et al. Mol Microbiol. 2004; 53: 1437-1449). The protocols used in the study were approved by the Consejería de Medio Ambiente de la Comunidad de Madrid (ref. PROEX 110/19).

[5] = test system: S. Typhimurium bacteria lacking PBP2SAL; test: BALB/c mice challenge, bacterial load in spleen; format: in vivo; details: intraperitoneal, every 24 h
Description: as §2

[6] = test system: S. Typhimurium wild-type bacteria; test: BALB/c mice challenge, bacterial load in spleen; format: in vivo; details: intraperitoneal, every 24 h
Description: as §2

[7] = test system: intra-phagosomal S. Typhimurium lacking PBP3SAL in RAW 264.7 macrophages; test: Macrophage infection and colony-forming unit counting; format: cell-based; details: 10 µg/mL added to infected macrophages; compared with bacteria lacking PBP3
Description: The murine macrophage line RAW 264.7 (400319, Cell Lines Service, CLS, https://clsgmbh.de/) was cultured in Dulbecco's modified Eagle's medium (DMEM) with 5% fetal bovine serum (FBS) and 4 mM glutamine in an incubator at 37°C in a 5% CO2 atmosphere. RAW 264.7 macrophages were seeded in 24-well plates (353047, Falcon) at a density of 2x10^5 cells/well and pre-cultured for 24 h before infection. Macrophages were activated with 2.5 ng/ml interferon-γ (315-05, Peprotech) 24 h prior infection. Culture medium was replaced by fresh medium without interferon-γ and infected with S. Typhimurium strains at a multiplicity of infection (MOI) of 10:1 during 10 min. Macrophages were washed with PBS supplemented with 0.5 mM MgCl2 and 0.9 mM CaCl2 (complete PBS) and extracellular non-phagocytosed bacteria were killed by incubation in medium containing gentamicin (100 µg/ml for 1 h, followed by 10 µg/ml for the remaining incubation). If indicated, aztreonam (ATM) (10 µg/mL) was added at 1 hpi. Infected macrophages were lysed at 1 and 8 hpi. Colony-forming units (CFU) were determined after two washes of the culture with complete PBS buffer, lysis with sterile solution containing 1% (w/v) Triton X 100 and 0.1% (w/v) sodium dodecyl sulfate (SDS) in PBS and plating on LB pH 7.0 or LB pH 4.6. The assays were repeated at least in three independent biological replicates.

[8] = test system: S. Typhimurium bacteria lacking PBP3 (ΔPBP3 mutant); test: Antibiotic susceptibility with MIC strips (E-test) on PCN agar plates with 0.01% YE; format: cell-based; details: Salmonella enterica, pH 4.6, read-out: MIC value
Description: Antibiotic susceptibility was determined using MIC strips (MIC Test Strip; Liofilchem) in PCN agar plates containing 0.01% YE at neutral or acid pH 4.6. S. Typhimurium cultures grown in PCN 4.6 were normalized to an optical density at 600 nm (OD600) of 0.1 and diluted 1:10. One hundred twenty microliters of this dilution were spread onto PCN plates using glass beads. The assays were repeated at least in three independent biological replicates.

[9] = test system: S. Typhimurium wild-type bacteria; test: as above; format: cell-based; details: for MIC: Salmonella enterica, TYPHIMURIUM; for susceptibility following the switch to acid pH: switch to acid pH (4.6), PBP3SAL expression
Description: S. Typhimurium cultures grown in PCN 4.6 were normalized to an optical density at 600 nm (OD600) of 0.1 and diluted 1:10. One hundred twenty microliters of this dilution were spread onto PCN plates using glass beads. The assays were repeated at least in three independent biological replicates.

[10] = test system: S. Typhimurium mutants lacking PBP3SAL; test: Spot dilution assay on PCN plates with antibiotic; format: cell-based; details: pH 4.6
Description: as §1

[11] = test system: S. Typhimurium bacteria lacking PBP3SAL; test: BALB/c mice challenge, bacterial load in spleen; format: in vivo; details: intraperitoneal, every 24 h
Description: as §2

[12] = test system: S. Typhimurium mutant lacking PBP3; test: BALB/c mice challenge, bacterial load in spleen; format: in vivo; details: intraperitoneal, every 24 h
Description: as §2

[13] = pH 4.6, PCN-0.01% yeast extract

## CC1(C)S[C@@H]2[C@H](/N=C/N3CCCCCC3)C(=O)N2[C@H]1C(=O)O [MEC, mecillinam]
[1]; pH 4.6
  susceptibility: does not alter susceptibility
[1]; pH 7.4
  susceptibility: resistant
[2]
  susceptibility: does not alter susceptibility
[3]; [13]
  susceptibility (bacterial growth): not at pH 4.6
[3]; pH 7.4
  susceptibility (bacterial growth): inhibit bacterial growth
[4]
  effect on bacterial loads: lesser effect
[5]
  bacterial loads: significant decrease of bacterial loads
[6]
  load of bacteria in spleen: did not result in a statistically significant decrease; also recorded: slightly effect of reduced viability

## C[C@H]1[C@H](NC(=O)/C(=N\OC(C)(C)C(=O)O)c2csc(N)n2)C(=O)N1S(=O)(=O)O [ATM, aztreonam]
[7]
  susceptibility of intra-phagosomal bacteria: more susceptible
[8]
  MIC: 0.75 µg/mL (≈ 1.72 µM)
[9]; pH 4.6
  MIC: 0.125 µg/mL (≈ 0.287 µM)
[9]; pH 7.4
  MIC: < 0.016 µg/mL
[10]
  antimicrobial activity: showed antimicrobial activity
[3]; [13]
  susceptibility (bacterial growth): not at pH 4.6; also recorded: resistant
[3]; pH 7.4
  susceptibility (bacterial growth): inhibit bacterial growth; also recorded: susceptible
[11]
  bacterial loads: significant decrease of bacterial loads
[6]
  load of bacteria in spleen: did not result in a statistically significant decrease
[12]
  effect on bacterial loads: lesser effect

## CC(=O)OCC1=C(C(=O)O)N2C(=O)[C@@H](NC(=O)Cc3cccs3)[C@H]2SC1 [cephalotin]
[9]
  susceptibility following the switch to acid pH: decreased susceptibility

## CO/N=C(\C(=O)N[C@@H]1C(=O)N2C(C(=O)O)=C(COC(N)=O)CS[C@H]12)c1ccco1 [cefuroxime]
[9]
  susceptibility following the switch to acid pH: decreased susceptibility

## CC(C)(O/N=C(\C(=O)N[C@@H]1C(=O)N2C(C(=O)[O-])=C(C[n+]3ccccc3)CS[C@H]12)c1csc(N)n1)C(=O)O [ceftazidime]
[9]
  susceptibility following the switch to acid pH: decreased susceptibility

## CO/N=C(\C(=O)N[C@@H]1C(=O)N2C(C(=O)O)=C(COC(C)=O)CS[C@H]12)c1csc(N)n1 [cefotaxime]
[9]
  susceptibility following the switch to acid pH: decreased susceptibility
